# Data published in patent US9567368B2, “Peptide tyrosinase activators” (Escape Therapeutics, Inc., priority 2013, dated 2017).
# Where no end group is shown, it is not given here.
# What was measured:
# [1] = tested on: purified mushroom tyrosinase; experiment: Allosteric activation of tyrosinase after inhibition by 6BH4; format: biochemical
# Description: To investigate the mechanism by which P9 and P10 exert their stimulatory effect on tyrosinase, 6BH4, an allosteric inhibitor of tyrosinase, was used in an experiment. In a 96-well plate, control wells containing substrate L-tyrosine, purified mushroom tyrosinase, and PBS (pH 6.8) were incubated at 37 degrees Celsius and periodically read at 475 nanometers. After 6 minutes, 20 micromolar 6BH4 was added to all wells except controls. At minute 12, the other triplicate wells received one of the following reagents: 20 micromolar of α-MSH, 100 micromolar of P4, P9, or P10, or 200 micromolar L-tyrosine.
# In a 96-well plate the control wells contained substrate L-tyrosine, purified mushroom tyrosinase and PBS (pH 6.8). The plate was incubated at 37 degrees Celsius and periodically read at 475 nanometers. After six minutes, 6BH4 was added to all wells except the control triplicate. At minute 12, the other triplicate wells received one of the following reagents: 10 micromolar of α-MSH, 100 micromolar of P4, P9 or P10, and 200 micromolar L-tyrosine. Data shown are mean±SEM of three independent runs.
# [2] = tested on: B16-F1 mouse melanoma cells; experiment: Melanin content measurement (extracellular and intracellular) in B16 cells; format: cell-based; details: relative to control
# Description: (§1) B16-F1 mouse melanoma cells (CRL-6323) were obtained and cultured in DMEM containing 10 percent fetal bovine serum, 100 units per milliliter (U/mL) penicillin, 0.1 mg/mL streptomycin, and 0.25 microgram per milliliter (μg/mL) amphotericin B at 37 degrees Celsius in a humidified 95 percent air/5 percent CO2 incubator. Drug treatment began 24 hours after seeding. Cells were harvested 72 hours later and melanin content and tyrosinase activity determined in triplicate.
# Extracellular melanin was estimated spectro-photometrically based on its absorption of light at 475 nanometers. After 72 hours treatment period, medium was collected and centrifuged (800×g for 10 minutes) and absorbance read at 475 nanometers. For intracellular melanin content, cells were collected by centrifugation and resuspended in PBS. Aliquots were removed for cell counting and protein estimation. To the remaining suspension, an equal volume of ethanol:ether (1:1 volume to volume) was added in order to remove opaque substances other than melanin which is not soluble in ethanol/ether (see, for example, Oikawa et al., Yale J. Biol. Med., 1973, 46: 500-507). After further centrifugation at 3000×g for 5 minutes, the precipitate was solubilized by treatment with 1 milliliter of 1 N NaOH solution at 80 degrees Celsius for 30 minutes in capped tubes. The absorbance was measured at 475 nanometers and compared to a standard curve prepared from standard dopa-melanin dissolved in the same solution. Melanin content per microgram (μg) cellular protein was calculated and expressed as a percentage of control.
# FIGS. 2A-2B show the effect of P9 and P10 on extracellular and intracellular melanin content. […] In a specific embodiment, general materials and methods include 3×10E5 B16 cells per well incubated for 72 hours. Control wells had media only. Other treatments were 600 micromolar L-tyrosine; 50 microgram per milliliter scoparone; 300 micromolar IBMX; 300 micromolar P9; and 300 micromolar P10. Data are expressed as a percentage of the control and are mean±SEM of three separate experiments and analyzed by one-way ANOVA. On the graph, for the bar corresponding to extracellular data (indicated by “*”), P<0.01 versus extracellular control, and for the second bar corresponding to intracellular data (indicated by “**”), P<0.01 versus intracellular control.
# [3] = target: T1, B16 tyrosinase (Mus musculus, UniProt P11344); experiment: Assay of B16 tyrosinase activity (DOPA oxidase activity); format: cell-based; details: for B16 tyrosinase activity increase: 72 hours incubation, relative to control cells; for EC50: approximate, see FIG. 3, read-out: EC 50 (dose that produces half the maximum response)
# T1 construct: host or cells: B16-F1 mouse melanoma cells
# T1 sequence (P11344 19-533): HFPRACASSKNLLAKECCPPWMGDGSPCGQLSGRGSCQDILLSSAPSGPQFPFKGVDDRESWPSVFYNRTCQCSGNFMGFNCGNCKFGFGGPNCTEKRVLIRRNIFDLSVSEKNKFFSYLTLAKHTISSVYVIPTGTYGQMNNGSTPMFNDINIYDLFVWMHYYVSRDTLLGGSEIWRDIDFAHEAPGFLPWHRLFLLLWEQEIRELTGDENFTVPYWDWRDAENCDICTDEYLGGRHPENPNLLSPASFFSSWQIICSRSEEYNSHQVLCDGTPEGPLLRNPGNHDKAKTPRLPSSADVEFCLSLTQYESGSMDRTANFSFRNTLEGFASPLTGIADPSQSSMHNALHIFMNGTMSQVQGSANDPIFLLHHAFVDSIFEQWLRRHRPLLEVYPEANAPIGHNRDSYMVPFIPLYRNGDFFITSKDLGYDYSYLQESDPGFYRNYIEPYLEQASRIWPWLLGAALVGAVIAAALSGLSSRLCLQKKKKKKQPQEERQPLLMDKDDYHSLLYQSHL
# Description: as §1
# Tyrosinase activity was assayed as DOPA oxidase activity. This can be according to traditional or modified assaying methods (see, for example, Yang et al., Acta Pharmacol. Sin. 2006, 27: 1467-1473). Cells were washed twice with PBS and lysed with 20 […] (mmol/L) Tris-0.1 percent Triton X-100 (pH 7.5). Tyrosinase activity was analyzed spectrophotometrically by following the oxidation of DOPA to DOPAchrome at 475 nanometers. The reaction mixture containing 100 microliter (μL) of freshly prepared substrate solution [0.1 percent L-DOPA in 0.1 mol/L sodium phosphate (pH 6.8)] and 50 microliters (μL) of enzyme solution was incubated at 37 degrees Celsius. Absorbance change was measured during the first 10 minutes of the reaction while the increase of the absorbance was linear, and corrections for auto-oxidation of L-DOPA in the controls were made. Activities were expressed as a percentage of control cells.
# (§2) For the tyrosinase activity, the reaction mixture containing 100 microliter of freshly prepared substrate solution [0.1 percent L-DOPA in 0.1 moles per liter sodium phosphate (pH 6.8)] and 50 microliters of enzyme solution was incubated at 37 degrees Celsius. The absorbance change was measured during the first 10 minutes of the reaction while the increase of the absorbance was linear, and corrections for auto-oxidation of L-DOPA in the controls were made. Activities were expressed as a percentage of the control cells. MTT was performed following the manufacturer's protocol. Data are expressed as a percentage of control and are mean±SEM of three separate experiments.
# [4] = tested on: mushroom tyrosinase; experiment: Assay of mushroom tyrosinase activity (L-tyrosine substrate, dopachrome at 475 nm); format: biochemical; details: for mushroom tyrosinase activity increase: 1 millimolar
# Description: The effect of pentapeptides P9 and P10 on mushroom tyrosinase activity was determined in vitro using L-tyrosine as the substrate (see, for example, Piao et al., Chem. Pharm. Bull. (Tokyo), 2002, 50: 309-311). The experiment was conducted in a 96-well flat-bottomed plate. Each well contained 80 microliters of 0.067 molar potassium phosphate buffer (pH 6.8), 40 microliters of 5 milligrams per milliliter L-tyrosine dissolved in 0.067 molar potassium phosphate buffer (pH 6.8), 40 microliters of the different concentrations of P9 or P10 dissolved in the same buffer, and 40 microliters of 480 units per milliliter mushroom tyrosinase solution. The final volume of each well was 200 microliters, containing […] L-tyrosine, 96 units per millileter tyrosinase and varying concentrations of P9 or P10, ranging from 30 micromolar to 1 millimolar. In the control wells, P9 and P10 were substituted with buffer solution and adjusted to a 200 microliters total volume. The assay mixture was incubated at 37 degrees Celsius and optical density (OD), which correlates to the amount of dopachrome produced, was measured periodically at 475 nanometers using a microplate reader (e.g., a Varioskan microplate reader from Thermo Electron Corporation).
# FIGS. 4A and 4B show mushroom tyrosinase activity increased by 123±4 percent and 156±4 percent at 1 millimolar P9 and P10, respectively. […] In the control wells, the reaction mix included purified mushroom tyrosinase, PBS (pH 6.8) and substrate L-tyrosine. In the other triplicate wells, P9 or P10 were added at various concentrations. The reaction was incubated at 37 degrees Celsius and the plate was read periodically at 475 nanometers.
# [5] = MTT proliferation and viability assay; format: cell-based; details: mouse, B16 cells, percentage of control, read-out: proliferation rate
# Description: Proliferation rates were determined using a general cell proliferation kit (e.g., TACS® MTT Cell Proliferation Kit from R&D systems). Cells were plated at 2.5×10E4 per well in 96-well plates in a humidified atmosphere with 5 percent CO2 at 37 degrees Celsius. Twenty-four hours after plating, test samples were added and cultures were incubated for an additional 72 hours. The remainder of the procedure was performed following the manufacturer's protocol.
# as §2
# [6] = 300 micromolar, 72 hours incubation
# [7] = 600 micromolar L-tyrosine, 72 hours
# [8] = 10 micromolar α-MSH added at minute 12 after 6BH4
molecule,measurement,setting,value
"C[C@H](O)[C@H](O)[C@H]1CNc2nc(N)[nH]c(=O)c2N1 [6BH4, (6R)-L-erythro-5,6,7,8-tetrahydrobiopterin]",inhibition of tyrosinase activity,[1]; 20 micromolar 6BH4 added after 6 minutes,inhibited completely
"CC(C)Cn1c(=O)n(C)c(=O)c2[nH]cnc21 [IBMX, 3-isobutyl-1-methylxanthine]",extracellular melanin content increase,[2]; [6],187±9%
same,intracellular melanin content increase,[2]; [6],67±6%
N[C@@H](Cc1ccc(O)cc1)C(=O)O [L-tyrosine],reversal of 6BH4-dependent tyrosinase inhibition,[1]; 200 micromolar L-tyrosine added at minute 12 after 6BH4,neither the addition of P4 nor L-tyrosine reversed
same,extracellular melanin content increase,[2]; [7],43±5%
same,intracellular melanin content increase,[2]; [7],7±3%
"COc1cc2ccc(=O)oc2cc1OC [scoparone, Scoparone]",intracellular melanin content increase,"[2]; 50 microgram per milliliter scoparone, 72 hours",53±6.9%
"YRSRK [P10, YRSRK]",B16 tyrosinase activity increase,[3]; 3 millimolar,91±6%
same,B16 tyrosinase activity increase,[3]; 300 micromolar,48±5%
same,EC50,[3],~300 µM
same,mushroom tyrosinase activity increase,[4],156±4%
same,dopachrome formation increase,[4]; 30 micromolar,45±3%
same,dopachrome formation increase,[4]; 300 micromolar,134±3%
same,"viability at 72 h, 10 millimolar",[5],95 ± 2%
same,intracellular melanin content increase,[2]; [6],62±6%
"YSSWY [P9, YSSWY]",B16 tyrosinase activity increase,[3]; 3 millimolar,84±3%
same,B16 tyrosinase activity increase,[3]; 300 micromolar,38±4%
same,EC50,[3],~300 µM
same,mushroom tyrosinase activity increase,[4],123±4%
same,dopachrome formation increase,[4]; 30 micromolar,28±3%
same,dopachrome formation increase,[4]; 300 micromolar,100±3%
same,"viability at 72 h, 10 millimolar",[5],94 ± 2%
same,extracellular melanin content increase,[2]; [6],170%
same,intracellular melanin content increase,[2]; [6],47±6%
α-Melanocyte Stimulating Hormone [α-MSH],reversal of 6BH4-dependent tyrosinase inhibition (reactivation of the enzyme),[1]; [8],reactivated the enzyme
same,"tyrosinase activity after reactivation, compared with control",[1]; [8],increased its activity to levels exceeding the control
